≈ marks a conversion by molar mass, not a printed value. Calls of active or inactive are those of the source. The calls are words filed in the database; no cut-off is given here.
Assays:
Staphylococcus aureus [1] = assay: Antibacterial activity against methicillin-resistant Staphylococcus aureus OC2878 assessed as log reduction in bacterial count at 8 times MIC after 24 hrs by time kill study; type: functional
Staphylococcus aureus [2] = assay: Antibacterial activity against methicillin-resistant Staphylococcus aureus OC2878 assessed as inhibition of bacterial regrowth at 16 times MIC after 24 hrs by dynamic time kill study; type: functional, organism-based
Staphylococcus aureus [3] = assay: Antibacterial activity against methicillin-resistant Staphylococcus aureus OC2878 by broth macrodilution method
[4] = Chemical stability of the compound assessed as compound degradation at 16 times MIC after 24 hrs by RP-HPLC analysis; type: physicochemical
Staphylococcus aureus [5] = assay: Antibacterial activity against methicillin-resistant Staphylococcus aureus OC2878 assessed as inhibition of bacterial regrowth at 16 times MIC after 8 hrs by dynamic time kill study; type: functional, organism-based

| Compound | log10cfu (Staphylococcus aureus [1]) | inhibition (Staphylococcus aureus [2]) | MIC (Staphylococcus aureus [3]) [µg/mL] | Stability [4] | inhibition (Staphylococcus aureus [5]) |
| --- | --- | --- | --- | --- | --- |
| CC(=O)NC[C@H]1CN(c2ccc(N3Cc4cn(C)nc4C3)c(F)c2)C(=O)O1 | 2 | Active | 0.5 (≈ 1.34 µM) | – | – |
| CC(=O)NC[C@H]1CN(c2ccc(N3CCOCC3)c(F)c2)C(=O)O1 [LINEZOLID] | 2 | – | 1 (≈ 2.96 µM) | Stable | inactive |
